In publication PMC11693670 (Frontiers in Fungal Biology, 2024):
Ends that are not written are not given here.

Columns and labels:
C. neoformans (KN99α) = conditions: 96 h
Experimental: C. neoformans and C. auris plates were incubated at 37°C and 5% CO2 for 96 hours after introduction of peptide and read at OD 600nm every 24 hours. […] MICs were determined for suspected positive hits against C. neoformans and C. albicans grown under the conditions previously described with approximately 500 fungal cells per well. […] C. neoformans plates were incubated at 37°C and 5% CO2 for 96 hours after introduction of peptide and read at OD 600nm every 24 hours. […] MICs were determined by approximately 50% inhibition of fungal growth, meaning that fungal growth as measured by OD was reduced 50% by peptide treatment relative to vehicle control.
Percent inhibition was calculated as the reduction
in OD at 600nm following peptide treatment relative to vehicle control. The average of six
replicates was used for each peptide concentration treatment and vehicle control.

C. neoformans = assay: Fungicidal/fungistatic tests; format: cell-based, Cryptococcus neoformans; set-up: key: Presence (+); absence (–); conditions: 5 µL plated on YPD agar, 30°C, visual inspection, six replicates
Experimental: Fungicidal/fungistatic tests were conducted with the four especially effective syn-enterocin peptides. C. neoformans was grown at 30°C in YPD overnight to an OD between 0.5 and 1.2 at 600 nm, then the C. neoformans culture was diluted to 10^5 and 10^3 fungal cells per well on a 96-well plate. Each well was treated with peptide at 16 µM before 5 µL per well was transferred onto YPD agar plates. Dilutions to reach desired cell counts were done in YPD. Six replicates of each peptide/dilution combination were plated. Plates were incubated at 30°C for 72 hours. Fungal growth was determined by visual inspection, with presence or absence of fungal growth being recorded (individual colonies were absent or overgrown and thus uncountable).

Row | Molecule | MIC against C. neoformans (C. neoformans (KN99α)) [µM] | Presence or absence of fungal growth at 72 hrs (C. neoformans; cell count 10^3, treatment 16 μM) | Presence or absence of fungal growth at 72 hrs (C. neoformans; cell count 10^5, treatment 16 μM)
1 | AGWERIAKELKKYIKKGKKVIRAAW [Peptide 32] | 2 |  | 
2 | OC(Cn1cncn1)(Cn1cncn1)c1ccc(F)cc1F [Fluconazole] |  | – | –
